Test results published in US11306337B2, “Polypeptides having hydrolytic activity on 1-kestose in the presence of sucrose but lacking sucrase (invertase) activity, polynucleotides encoding same and methods of producting and using same in industrial sucrose production from 1-kestose” (CTC—Centro de Tecnologia Canavieira S.A., priority 2015, dated 2022).

T1: Saccharomyces cerevisiae invertase (Saccharomyces cerevisiae, UniProt P00724)
T1 sequence (P00724 20-532): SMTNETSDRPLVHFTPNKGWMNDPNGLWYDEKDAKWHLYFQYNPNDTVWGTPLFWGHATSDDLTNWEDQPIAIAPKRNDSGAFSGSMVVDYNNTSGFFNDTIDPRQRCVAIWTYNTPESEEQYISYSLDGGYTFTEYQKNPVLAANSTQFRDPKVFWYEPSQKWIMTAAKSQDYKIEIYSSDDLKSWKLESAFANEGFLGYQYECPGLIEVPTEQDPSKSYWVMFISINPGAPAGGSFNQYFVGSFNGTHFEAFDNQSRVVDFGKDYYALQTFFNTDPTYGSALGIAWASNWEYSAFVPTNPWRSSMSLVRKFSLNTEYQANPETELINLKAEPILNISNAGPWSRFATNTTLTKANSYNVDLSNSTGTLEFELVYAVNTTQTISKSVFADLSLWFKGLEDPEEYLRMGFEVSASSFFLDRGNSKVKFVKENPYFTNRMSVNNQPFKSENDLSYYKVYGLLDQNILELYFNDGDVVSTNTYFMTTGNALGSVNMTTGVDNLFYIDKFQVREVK

B1: enzyme D: Cichorium intybus 1-FEH IIa with W82 homologue replaced by leucine; also reported by Verhaest et al. 2007 (protein)
chain: QQIEQPYRTGYHFQPPSNWMNDPNGPMLYQGVYHFFYQYNPYAATFGDVIIWGHAVSYDLVNWIHLDPAIYPTQEADSKSCLSGSATILPGNIPAMLYTGSDSKSRQVQDLAWPKNLSDPFLREWVKHPKNPLITPPEGVKDDCFRDPSTAWLGPDGVWRIVVGGDRDNNGMAFLYQSTDFVNWKRYDQPLSSADATGTWECPDFYPVPLNSTNGLDTSVYGGSVRHVMKAGFEGHDWYTIGTYSPDRENFLPQNGLSLTGSTLDLRYDYGQFYASKSFFDDAKNRRVLWAWVPETDSQADDIEKGWAGLQSFPRALWIDRNGKQLIQWPVEEIEELRQNQVNLQNKNLKPGSVLEIHGIAASQADVTISFKLEGLKEAEVLDTTLVDPQALCNERGASSRGALGPFGLLAMASKDLKEQSAIFFRVFQNQLGRYSVLMCSDLSRSTVRSNIDTTSYGAFVDIDPRSEEISLRNLIDHSIIESFGAGGKTCITSRIYPKFVNNEEAHLFVFNNGTQNVKISEMSAWSMKNAKFVVDQSVKSAA
modifications: Fructan 1-exohydrolase precursor (W120L)

Key:
[1] = molecular target: T1, Saccharomyces cerevisiae invertase; conditions: cited from earlier work; for Activity: substrate hydrolysed by S. cerevisiae invertase, Sainz-Polo et al., 2013; for Activity of S. cerevisiae invertase with the oligosaccharide as substrate: Sainz-Polo et al. 2013
[2] = cited from earlier work
[3] = Sucrose inhibition assay of 1-kestose hydrolysis by partially purified recombinant 1-FEH targets (HPAEC-PAD, fructose released); type: biochemical; conditions: 380 mM sucrose; 10 mM 1-kestose, 1 hour, 30° C., pH6.0
Method: The enzymes A, B, C and D were expressed in Pichia pastoris KM71H strain with a fusion GFP protein at C-terminal in 300 mL of culture media. After 48-hour induction with 0.5% (v/v) […] of methanol, the recombinant proteins were partially purified by precipitation with ammonium sulphate at 70% of saturation, followed by solubilization with sodium phosphate buffer 50 mM pH6.0. The partially purified proteins were concentrated and analyzed by SDS-PAGE and blue-light transluminator for GFP fluorescence. The enzymatic activity assays of the partially purified enzymes were evaluated using 10 mM 1-kestose as substrate, 50 uL of enzyme and sucrose as inhibitor ranging from zero to 380 mM, in a 100 μL-reaction buffered with sodium phosphate 50 mM pH6.0. The reactions were carried for 1 hour at 30° C. and stopped by heating at 95° C. for 5 minutes. The reactions were than diluted to 4 mL with ultrapure water and analyzed high-pressure anion-exchange chromatography with pulsed amperometric detection (HPAEC-PAD, Dionex, Sunnyvale, Calif., USA). Enzyme relative activity was determined by the amount of fructose released.
After identifying that the chosen targets are active against 1-kestose but not sucrose, we performed sucrose inhibition studies in which the amount of enzyme and substrate were fixed and increasing concentrations of sucrose were added to the reaction. […]

[4] = 10 mM sucrose, Verhaest et al., 2007

| Molecule | Activity [1] | Activity of S. cerevisiae invertase with the oligosaccharide as substrate [1] | further results |
| --- | --- | --- | --- |
| OC[C@H]1O[C@@](CO)(OC[C@@]2(O[C@H]3O[C@H](CO)[C@@H](O)[C@H](O)[C@H]3O)O[C@H](CO)[C@@H](O)[C@@H]2O)[C@@H](O)[C@@H]1O [1-Kestose, β-D-fructofuranosyl-(2→1)-β-D-fructofuranosyl α-D-glucopyranoside] | 102 ± 11 µmol/min/mg |  |  |
| OC[C@H]1O[C@@](CO)(OC[C@@]2(OC[C@@]3(O[C@H]4O[C@H](CO)[C@@H](O)[C@H](O)[C@H]4O)O[C@H](CO)[C@@H](O)[C@@H]3O)O[C@H](CO)[C@@H](O)[C@@H]2O)[C@@H](O)[C@@H]1O [Nystose] | 36 ± 1 µmol/min/mg | hydrolyzed at a much lower rate |  |
| OC[C@H]1O[C@H](OC[C@H]2O[C@H](O[C@]3(CO)O[C@H](CO)[C@@H](O)[C@@H]3O)[C@H](O)[C@@H](O)[C@@H]2O)[C@H](O)[C@@H](O)[C@H]1O [Raffinose] | 187 ± 8 µmol/min/mg |  |  |
| OC[C@H]1O[C@@](CO)(O[C@H]2O[C@H](CO)[C@@H](O)[C@H](O)[C@H]2O)[C@@H](O)[C@@H]1O [Sucrose, sucrose] | 520 ± 20 µmol/min/mg | highest efficiency |  |
| Inulin | 2.5 ± 0.1 µmol/min/mg | No significant activity |  |
| B1 |  |  | inhibition by sucrose (text) [2, 4]: 0%; inhibition by sucrose (words) [2, 4]: no longer inhibited; % inhibition by sucrose ([2]; 10 mM sucrose): 0% with 10 mM; Sucrose inhibition ([2]; Weak / Strong, Table 3): Weak; inhibition by sucrose as described in the literature ([2]; no sucrose concentration stated): strongly inhibited; inhibition by sucrose [3]: 52% |
